Results as given in ChEMBL document CHEMBL1201862, “PubChem BioAssay data set” (2004).
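Five compound concentrations were applied to cells in 96-well plates for 48 hours; endpoints were derived by simple linear interpolation of the resulting dose-response curve. GI50 marks 50% less growth.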 Active and inactive are the calls of the source. Rule as the data show it: active = GI50 up to about 1.1 µM and inactive = higher.

Experiments:
Experiment in all cases: NCI-60 cell line screen, 48 h
[1] = tested on: SF-295
[2] = tested on: TK-10
[3] = tested on: RXF 393
[4] = tested on: PC-3
[5] = tested on: SK-MEL-5
[6] = tested on: SW-620
[7] = tested on: OVCAR-5
[8] = tested on: COLO 205
[9] = tested on: LOX IMVI
[10] = tested on: MCF7
[11] = tested on: A549
[12] = tested on: MOLT-4
[13] = tested on: KM12
[14] = tested on: 786-0
[15] = tested on: NCI/ADR-RES
[16] = tested on: RPMI-8226
[17] = tested on: MDA-MB-435
[18] = tested on: BT-549
[19] = tested on: T47D
[20] = tested on: IGROV-1
[21] = tested on: CAKI-1
[22] = tested on: OVCAR-4
[23] = tested on: SNB-19
[24] = tested on: EKVX
[25] = tested on: SNB-75
[26] = tested on: OVCAR-8
[27] = tested on: HL-60
[28] = tested on: UO-31
[29] = tested on: K562
[30] = tested on: M14
[31] = tested on: NCI-H460
[32] = tested on: UACC-257
[33] = tested on: OVCAR-3
[34] = tested on: U-251
[35] = tested on: HOP-92
[36] = tested on: SK-OV-3
[37] = tested on: DU-145
[38] = tested on: UACC-62
[39] = tested on: SN12C
[40] = tested on: Malme-3M
[41] = tested on: HT-29
[42] = tested on: HCT-116
[43] = tested on: Hs-578T
[44] = tested on: HCT-15
[45] = tested on: SK-MEL-28
[46] = tested on: CCRF-CEM
[47] = tested on: HOP-62
[48] = tested on: MDA-MB-231
[49] = tested on: ACHN
[50] = tested on: NCI-H23
[51] = tested on: SF-268
[52] = tested on: MDA-N
[53] = tested on: NCI-H522
[54] = tested on: A498
[55] = tested on: SK-MEL-2
[56] = tested on: HCC 2998
[57] = tested on: SF-539
[58] = tested on: NCI-H226

COc1cc(/C=C2\N=C(c3ccccc3)N(c3ccc(C(=O)c4ccccc4)cc3N3C(=O)/C(=C/c4cc(OC)c(OC)c(OC)c4)N=C3c3ccccc3)C2=O)cc(OC)c1OC
GI50 [1]: 11.7 µM (inactive)
GI50 [2]: 16.8 µM (inactive)
GI50 [3]: 11.2 µM (inactive)
GI50 [4]: 12.6 µM (inactive)
GI50 [5]: 9.33 µM (inactive)
GI50 [6]: 7.57 µM (inactive)
GI50 [7]: 30.8 µM (inactive)
GI50 [8]: 16.4 µM (inactive)
GI50 [9]: 14.3 µM (inactive)
GI50 [10]: 12.6 µM (inactive)
GI50 [11]: 13.7 µM (inactive)
GI50 [12]: 4.97 µM (inactive)
GI50 [13]: 13.2 µM (inactive)
GI50 [14]: 16.8 µM (inactive)
GI50 [15]: 7.8 µM (inactive)
GI50 [16]: 9.73 µM (inactive)
GI50 [17]: 2.85 µM (inactive)
GI50 [18]: 14.4 µM (inactive)
GI50 [19]: 4.93 µM (inactive)
GI50 [20]: 15.7 µM (inactive)
GI50 [21]: 22.2 µM (inactive)
GI50 [22]: 21.8 µM (inactive)
GI50 [23]: 25.6 µM (inactive)
GI50 [24]: 24.8 µM (inactive)
GI50 [25]: 7.36 µM (inactive)
GI50 [26]: 19.9 µM (inactive)
GI50 [27]: 4.05 µM (inactive)
GI50 [28]: 16 µM (inactive)
GI50 [29]: 4.86 µM (inactive)
GI50 [30]: 12.1 µM (inactive)
GI50 [31]: 8.49 µM (inactive)
GI50 [32]: 15.2 µM (inactive)
GI50 [33]: 2.08 µM (inactive)
GI50 [34]: 18.7 µM (inactive)
GI50 [35]: 47.2 µM (inactive)
GI50 [36]: 13.3 µM (inactive)
GI50 [37]: 14.5 µM (inactive)
GI50 [38]: 9.48 µM (inactive)
GI50 [39]: 23.1 µM (inactive)
GI50 [40]: 13.8 µM (inactive)
GI50 [41]: 29.1 µM (inactive)
GI50 [42]: 10.6 µM (inactive)
GI50 [43]: 17.9 µM (inactive)
GI50 [44]: 5.62 µM
GI50 [45]: 18.7 µM (inactive)
GI50 [46]: 5.31 µM (inactive)
GI50 [47]: 20.7 µM (inactive)
GI50 [48]: 16.9 µM (inactive)
GI50 [49]: 22.6 µM (inactive)
GI50 [50]: 17.1 µM (inactive)
GI50 [51]: 20.3 µM (inactive)
GI50 [52]: 2.73 µM (inactive)
GI50 [53]: 4.65 µM (inactive)
GI50 [54]: 12 µM (inactive)
GI50 [55]: 9.77 µM (inactive)
GI50 [56]: 2.94 µM (inactive)

CN1c2ccccc2S(=O)(=O)n2c(CCc3ccccc3)nnc21
GI50 [1]: 56.2 µM (inactive)
GI50 [2]: > 100 µM (inactive)
GI50 [3]: > 100 µM (inactive)
GI50 [4]: > 100 µM (inactive)
GI50 [5]: > 100 µM (inactive)
GI50 [6]: > 100 µM (inactive)
GI50 [7]: > 100 µM (inactive)
GI50 [8]: > 100 µM (inactive)
GI50 [9]: > 100 µM (inactive)
GI50 [10]: > 100 µM (inactive)
GI50 [11]: > 100 µM (inactive)
GI50 [12]: > 100 µM (inactive)
GI50 [13]: > 100 µM (inactive)
GI50 [14]: 54.1 µM (inactive)
GI50 [15]: > 100 µM (inactive)
GI50 [17]: > 100 µM (inactive)
GI50 [57]: > 100 µM (inactive)
GI50 [18]: > 100 µM (inactive)
GI50 [19]: > 100 µM (inactive)
GI50 [20]: > 100 µM (inactive)
GI50 [21]: 44.1 µM (inactive)
GI50 [22]: 82 µM (inactive)
GI50 [23]: > 100 µM (inactive)
GI50 [24]: > 100 µM (inactive)
GI50 [26]: > 100 µM (inactive)
GI50 [27]: > 100 µM (inactive)
GI50 [28]: > 100 µM (inactive)
GI50 [29]: > 100 µM (inactive)
GI50 [30]: > 100 µM (inactive)
GI50 [31]: 98.6 µM (inactive)
GI50 [32]: > 100 µM (inactive)
GI50 [33]: > 100 µM (inactive)
GI50 [34]: > 100 µM (inactive)
GI50 [35]: 37.8 µM (inactive)
GI50 [36]: > 100 µM (inactive)
GI50 [37]: > 100 µM (inactive)
GI50 [38]: > 100 µM (inactive)
GI50 [39]: > 100 µM (inactive)
GI50 [41]: > 100 µM (inactive)
GI50 [42]: > 100 µM (inactive)
GI50 [43]: 79.4 µM (inactive)
GI50 [44]: > 100 µM
GI50 [45]: > 100 µM (inactive)
GI50 [46]: > 100 µM (inactive)
GI50 [47]: 41.2 µM (inactive)
GI50 [48]: > 100 µM (inactive)
GI50 [49]: > 100 µM (inactive)
GI50 [50]: > 100 µM (inactive)
GI50 [51]: > 100 µM (inactive)
GI50 [58]: > 100 µM (inactive)
GI50 [52]: > 100 µM (inactive)
GI50 [53]: 43.9 µM (inactive)
GI50 [54]: 39.1 µM (inactive)
GI50 [55]: > 100 µM (inactive)
GI50 [56]: > 100 µM (inactive)
